In US6632643B2, “Use of α-1,4-glucan lyase for preparation of 1,5-D-hydrofructose” (Danisco A/S, priority 1993, dated 2003):
Marks after values point to notes of the source that are not given here. Each block holds one compound with its values, some of them ahead of it.

Tests used:
[1] = system: M. costata lyase; test: Reversible and irreversible inhibitors of the fungal lyase (M. costata); type: biochemical, Morchella costata; conditions: for decrease of lyase activity (inhibition): 0.1 M inhibitor
Experimental: (§1) The reaction was carried out at 30 ° C. for 30 min and stopped by the addition of 3,5-dinitrosalicylic acid reagent. Optical density at 550 nm was measured after standing at room temperature for 10 min.
Under the same assay conditions and in the presence of 2 mM PCMB, the activity decreased by 60% for the M. costata lyase and 98% for the lyase from the fungal infected red algae. This means that the fungal lyase was much less sensitive to heavy metal inhibition.

[2] = system: lyase from the fungal infected red algae; test: Inhibition, activation and stabilisation of the lyase from fungal infected algae; type: biochemical, fungal infected Gracilariopsis lemaneiformis
Experimental: […] The reaction was carried out at 30° C. for 30 min and stopped by the addition of 3,5-dinitrosalicylic acid reagent. Optical density at 550 nm was measured after standing at room temperature for 10 min.

[3] = system: α-1,4-glucan lyase from the parasite-free red seaweed Gracilariopsis lemaneiformis; test: PCMB inhibition of the lyase from Californian alga; type: biochemical; conditions: final concentration 2 mM
Experimental: 7. At a final concentration of 2 mM, p-chloromercuribenzoic acid (PCMB) inhibited the lyase activity by 96%, indicating the —SH group(s) is essential for the enzymatic activity.

[4] = system: lyase from M. costata; test: Relative degrading rates of the lyase from M. costata towards various substrates; type: biochemical, Morchella costata; conditions: for activity (maltotetraose as 100%): purified fungal lyase, section B.1.4.3
[5] = system: lyase from M. vulgaris; test: Relative degrading rates of the lyase from M. vulgaris towards various substrates; type: biochemical, Morchella vulgaris; conditions: for Activity (%) (maltotetraose = 100%): all substrates 10 mg ml^−1
Experimental: The activity observed for maltotetraose is treated as 100%. The final concentration of all substrates was 10 mg ml^−1.

[6] = system: α-1,4-glucan lyase from the parasite-free red seaweed Gracilariopsis lemaneiformis; test: Degradation rates of the Californian algal lyase on various substrates; type: biochemical; conditions: for AF released: substrate 10 mg/ml, pH 3.8, 40 min at 45° C.
Experimental: Reaction conditions: The reaction mixture contained 10 mM of HOAc-NaOAc (pH 3.8). The substrate concentration was 10 mg/ml. The final volume was 100 ul after the addition of lyase and water. The reaction time was 40 min at 45° C.

[7] = system: lyase from the fungal infected Gracilariopsis lemaneiformis; test: Reaction rates with glycogen and amylopectin, lyase from fungal infected Gracilariopsis lemaneiformis; type: biochemical
[8] = Electrochemical oxygen consumption in methyl linoleate emulsion; conditions: AF 15, 146 and 680 μM; MMb initiated; pH 5.8; 25.0 °C
Experimental: The activity of AF was investigated in a methyl linoleate emulsion as described by Jorgensen and Skibsted (Z. Lebensm. Unters. Forsch. (1993) 196: 423-429) with minor modifications: To 5.00 ml of a 1.33 mM methyl linoleate emulsion in 5.0 mM aqueous phosphate buffer with pH=5.8 and 0.2 w/w % Tween 20 as emulsifier was added AF in the following concentrations: 0, 15, 146 and 680μM. The oxidation in the system was initiated by addition of 50 μl 0.26 M metmyoglobin (MMb) final concentration 0.26 mM. Immediately after initiating the reaction the sample was injected to a thermostated (25.0±0.1° C.) 70 μl closed cell, effectively excluding diffusion of oxygen into the system. The oxygen consumption was measured by a Clark electrode, which was connected to a PC data collection program. The relative oxygen concentration (%) was registered every 30s.

[9] = ESR analysis of hydroxyl radical scavenging (Fenton reaction, DMPO spin trap); conditions: H2O2 0.17 mM, Fe2+ 4.8 μM
Experimental: Hydroxyl radicals were generated by a Fenton reaction with H2O2 (0.17 mM) and FeSO4 (4.8 μM). The generated radicals were trapped by 5,5-dimethyl-1-pyrroline N-oxide (DMPO, 9.7 mM). AF was added in concentrations of 1.3 mM and 6.3 mM. A water soluble extract of rosemary (Rosmarinus officinalis L.) was analyzed in a concentration of 0.25 mg/ml (in grams equivalent to 1.26 mM AF). Measurements were carried out at room temperature (20±1° C.) after 120 s and repeated for the same reaction mixture after 300 s with the following spectrometer settings: Center field 3475.60 G; sweep width 55 G; microwave power 20 mW; modulation frequency 100 kHz; modulation amplitude 1.01 G; receiver gain 1.00·10^5; conversion time 81.92 ms time constant 163.84 ms and sweep time 83.89 s.
The generated hydroxyl radicals were trapped by DMPO. The spin adduct gives rise to a characteristic 1:2:2:1 ESR spectrum. The peak height of the spectrum is proportional to the quantitative amount of generated spin adduct. Addition of both DMPO and AF will set up a competition between the spin trap and AF. A reduction of peak height will indicate a good scavenging activity of AF.

[10] = Induction period of 50% mayonnaise in bomb calorimeter, 80° C., pure O2; conditions: +500 ppm
Experimental: In the test procedure the anti-oxidants were added to the mayonnaise to provide an anti-oxidant concentration in the order of about 500 ppm. The mayonnaise was then placed in a bomb calorimeter at temperature 80° C. containing pure O2. An induction period to the onset of substantial oxidation of the product is then measured.

[11] = Induction period of yogurt salad dressing with 50% oil; conditions: 500 ppm; PF = IP with antioxidant / IP without
From the text: For each temperature defined as PF=IP of the oil with added antioxidant/IP of the same oil without added antioxidant

[12] = Reduction of 3,5-dinitrosalicylic acid by AF; type: physicochemical
[13] = system: α-1,4-glucan lyase isolated from M. costata; test: Oligosaccharide specificity and AF formation by M. costata lyase, Dionex HPLC; type: biochemical, Morchella costata; conditions: 30° C.
Experimental: The specificity of α-1,4-glucan lyase isolated from M. costata for different oligosaccharides was tested. […] The oligosaccharides were dissolved in H2O at a concentration of 8 mg/ml. The enzyme assay contained 150 μl substrate G2/G3/G4/G5/G6/G7, 120 μl 0.1M MBS pH 6.3 and 30 μl purified enzyme. The reaction mixture was incubated for 60 min at 30° C. Afterwards the reaction was stopped by boiling for 3 min and 900 μl absolute ethanol was added for precipitation. After centrifugation at 20.000×g for 5 min at 4° C. the supernatant was transferred to a new eppendorf tube and lyophilized.
The freeze-dried samples were dissolved in 1000 μl H2O and were filtrated through a 0.22 μm Millipore filter before 25 μl of the sample was loaded on the Dionex HPLC.
Analyses were performed on a Dionex 4500i chromatography system consisting of a GPM-2 pump and a PED detector which was used in pulse-amperometric detection mode.
α-1,4-glucan lyase from M.costata hydrolyses starch to the end-product 1,5-anhydrofructose. The end-product was shown by HPLC, method 2. The enzyme assay contained 500 μl amylopectin (20 mg/ml, dissolved in H2O), 400 μl 0.1M MES pH 6.3 and 100 μl purified enzyme. The reaction mixture was incubated at 30° C. and the reaction was stopped by boiling after 30 or 120 min incubation. […]

[14] = system: lyase from the fungal infected algae; test: Effect of reaction media on production of AF by the lyase; type: biochemical, fungal infected Gracilariopsis lemaneiformis; conditions: NaCl 0.85% (0.145 M) in the reaction mixture
From the text: The production of AF using either pure water or 0.85% NaCl as reaction medium decreased the yield.

[15] = system: M. vulgaris lyase; test: Reversible inhibitors of the M. vulgaris lyase; type: biochemical, Morchella vulgaris; conditions: 0.1 M inhibitor
Experimental: as §1

[16] = system: α-1,4-glucan lyase; test: Activity of the lyase towards maltosaccharides (summary); type: biochemical

- activity decreased to (remaining activity) ([1]; 25 μM, amylopectin 2%): 10.4%
- lyase activity ([1]; 100 μM, amylopectin 2%): completely lost
- activity decreased to (remaining activity) ([2]; 25 μM, amylopectin 2%): 10.4%
- lyase activity ([2]; 100 μM, amylopectin 2%): completely lost
Compound: OC[C@H]1NC[C@H](O)[C@@H](O)[C@@H]1O [deoxyjirimycin]

Compound: O=C(O)c1cc[c]([Hg][Cl])cc1 [PCMB, p-chloromercuribenzoic acid]
- activity decreased by ([1]; 2 mM PCMB): 60%
- activity decreased by ([2]; 2 mM PCMB): 98%
- inhibition of lyase activity [3]: 96%

Compound: Amylopectin
- stabilizing effect on the lyase ([2]; soluble and immobilized enzyme system): stabilizing effect
- degradation by the fungal lyase [4]: also degraded
- relative degrading rate (maltotetraose = 100%) ([4]; substrate 10 mg/ml): 106.5%
- Activity (%) (maltotetraose = 100%) [5]: 139.9%
- substrate concentration at which half of the maximal velocity rate was reached [6]: 3.76 mg/mL
- AF released [6]: 732 nmol
- relative reaction rates ([7]; 25 C.): 0.818^a
- relative reaction rates ([7]; 30 C.): 1.133^a
- relative reaction rates ([7]; 45 C.): 1.17^a

- inhibition of enzyme activity by the endproduct ([13]; amylopectin, 30 and 120 min incubation): not inhibited
Compound: O=C1CO[C@H](CO)[C@@H](O)[C@@H]1O [AF, 1,5-D-anhydrofructose]
- oxygen consumption (relative oxygen concentration) [8]: a lag-phase is observed
- Peak height [120 s] ([9]; Anhydro fructose 1.3 mM): 2634
- Peak height [300 s] ([9]; Anhydro fructose 1.3 mM): 2545
- Peak height [120 s] ([9]; Anhydro fructose 6.3 mM): 1781
- Peak height [300 s] ([9]; Anhydro fructose 6.3 mM): 1900
- IP (hours), Induction Period [10]: 32.0 h
- PF [11]: 1.06
- reduction of 3,5-dinitrosalicylic acid to 3-amino-5-nitrosalicylic acid [12]: can easily reduce

Compound: [Cl-].[Na+] [NaCl]
- increase of AF yield [14]: up to 1 -fold

- decrease of lyase activity (inhibition) ([1]; Amylopectin 2%): 7%
- decrease of lyase activity (inhibition) ([1]; Glycogen 1% (10 mg/ml)): 0.000%
- decrease of lyase activity (inhibition) ([1]; Glycogen 1% (10 mg/ml), listed as glucose): not affected
- inhibition of lyase reaction ([15]; Amylopectin (1%)): 28%
- inhibition of lyase reaction ([15]; Glycogen (1%)): 5%
- degradation (AF detectable on TLC plates) ([4]; incubated for 48 h): no AF detectable
- degradation (AF detectable on TLC plates) ([5]; incubated for 48 h): no AF detectable
Compound: O=C[C@H](O)[C@@H](O)[C@H](O)[C@H](O)CO [Glucose, glucose]
- degradation by the lyase [6]: not able to degrade

Compound: OC[C@H]1O[C@H](O[C@H]2[C@H](O)[C@@H](O)[C@@H](O[C@H]3[C@H](O)[C@@H](O)[C@@H](O[C@H]4[C@H](O)[C@@H](O)[C@@H](O[C@H]5[C@H](O)[C@@H](O)[C@@H](O[C@H]6[C@H](O)[C@@H](O)[C@@H](O[C@H]7[C@H](O)[C@@H](O)C(O)O[C@@H]7CO)O[C@@H]6CO)O[C@@H]5CO)O[C@@H]4CO)O[C@@H]3CO)O[C@@H]2CO)[C@H](O)[C@@H](O)[C@@H]1O (some centres unmarked) [Maltoheptaose, maltoheptaose]
- activity (maltotetraose as 100%) [4]: 76%
- relative degrading rate (maltotetraose = 100%) ([4]; substrate 2 mg/ml): 82.2%
- relative degrading rate (maltotetraose = 100%) ([4]; substrate 4 mg/ml): 81.5%
- relative degrading rate (maltotetraose = 100%) ([4]; substrate 10 mg/ml): 75.7%
- Activity (%) (maltotetraose = 100%) [5]: 73.9%
- AF released [6]: 865 nmol
- lyase activity towards maltosaccharide [16]: lower activity

Compound: OC[C@H]1O[C@H](O[C@H]2[C@H](O)[C@@H](O)C(O)O[C@@H]2CO)[C@H](O)[C@@H](O)[C@@H]1O (mixture of isomers) [Maltose, maltose]
- decrease of lyase activity (inhibition) ([1]; Amylopectin 2%): (67.2%)
- decrease of lyase activity (inhibition) ([1]; Glycogen 2%): (49.7%)
- inhibition of lyase reaction ([15]; Amylopectin (1%)): 80%
- inhibition of lyase reaction ([15]; Glycogen (1%)): 57%
- activity (maltotetraose as 100%) [4]: 2%
- 1,5-anhydrofructose formed ([13]; 8 mg/ml substrate, pH 6.3, 60 min): almost no 1,5-anhydrofructose was formed
- Activity (%) (maltotetraose = 100%) [5]: 10.1%
- AF released [6]: 657 nmol
- lyase activity towards maltosaccharide [16]: low activity
